Legend:
Assay type in all cases: cell-based
[1] = target: T1, Integrin alpha-4/beta-1 (Homo sapiens, UniProt P05556+P13612); assay: Antagonistic activity against VLA-4 (derived from ramos cells) binding to recombinant human VCAM
[2] = target: T1, Integrin alpha-4/beta-1; assay: Inhibition of recombinant human VCAM binding to VLA-4 of Ramos cells at 10 uM
[3] = target: T1, Integrin alpha-4/beta-1; assay: Inhibition of CS-1 peptide binding to VLA-4 expressed in Ramos cells

T1 sequence (P05556 whole entry): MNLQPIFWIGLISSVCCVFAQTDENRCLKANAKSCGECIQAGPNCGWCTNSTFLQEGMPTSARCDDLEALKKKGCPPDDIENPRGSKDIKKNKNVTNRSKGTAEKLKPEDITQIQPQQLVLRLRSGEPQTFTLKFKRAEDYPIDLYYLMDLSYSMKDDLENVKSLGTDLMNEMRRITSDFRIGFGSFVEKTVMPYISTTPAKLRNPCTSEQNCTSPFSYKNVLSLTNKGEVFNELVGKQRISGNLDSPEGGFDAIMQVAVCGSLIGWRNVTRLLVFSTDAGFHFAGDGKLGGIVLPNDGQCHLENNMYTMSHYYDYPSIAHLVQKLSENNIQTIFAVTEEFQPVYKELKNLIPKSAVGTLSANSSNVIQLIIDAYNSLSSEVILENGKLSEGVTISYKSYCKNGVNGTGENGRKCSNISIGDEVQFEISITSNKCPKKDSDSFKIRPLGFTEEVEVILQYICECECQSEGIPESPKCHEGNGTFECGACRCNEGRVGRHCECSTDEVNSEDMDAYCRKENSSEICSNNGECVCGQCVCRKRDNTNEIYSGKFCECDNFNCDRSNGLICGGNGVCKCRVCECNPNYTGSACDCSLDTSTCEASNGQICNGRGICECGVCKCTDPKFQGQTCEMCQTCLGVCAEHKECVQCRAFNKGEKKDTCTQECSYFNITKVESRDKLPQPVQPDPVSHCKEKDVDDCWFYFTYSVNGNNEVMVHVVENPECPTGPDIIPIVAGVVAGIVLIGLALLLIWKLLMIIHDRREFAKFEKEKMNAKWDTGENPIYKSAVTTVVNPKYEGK
T1 sequence (P13612 whole entry): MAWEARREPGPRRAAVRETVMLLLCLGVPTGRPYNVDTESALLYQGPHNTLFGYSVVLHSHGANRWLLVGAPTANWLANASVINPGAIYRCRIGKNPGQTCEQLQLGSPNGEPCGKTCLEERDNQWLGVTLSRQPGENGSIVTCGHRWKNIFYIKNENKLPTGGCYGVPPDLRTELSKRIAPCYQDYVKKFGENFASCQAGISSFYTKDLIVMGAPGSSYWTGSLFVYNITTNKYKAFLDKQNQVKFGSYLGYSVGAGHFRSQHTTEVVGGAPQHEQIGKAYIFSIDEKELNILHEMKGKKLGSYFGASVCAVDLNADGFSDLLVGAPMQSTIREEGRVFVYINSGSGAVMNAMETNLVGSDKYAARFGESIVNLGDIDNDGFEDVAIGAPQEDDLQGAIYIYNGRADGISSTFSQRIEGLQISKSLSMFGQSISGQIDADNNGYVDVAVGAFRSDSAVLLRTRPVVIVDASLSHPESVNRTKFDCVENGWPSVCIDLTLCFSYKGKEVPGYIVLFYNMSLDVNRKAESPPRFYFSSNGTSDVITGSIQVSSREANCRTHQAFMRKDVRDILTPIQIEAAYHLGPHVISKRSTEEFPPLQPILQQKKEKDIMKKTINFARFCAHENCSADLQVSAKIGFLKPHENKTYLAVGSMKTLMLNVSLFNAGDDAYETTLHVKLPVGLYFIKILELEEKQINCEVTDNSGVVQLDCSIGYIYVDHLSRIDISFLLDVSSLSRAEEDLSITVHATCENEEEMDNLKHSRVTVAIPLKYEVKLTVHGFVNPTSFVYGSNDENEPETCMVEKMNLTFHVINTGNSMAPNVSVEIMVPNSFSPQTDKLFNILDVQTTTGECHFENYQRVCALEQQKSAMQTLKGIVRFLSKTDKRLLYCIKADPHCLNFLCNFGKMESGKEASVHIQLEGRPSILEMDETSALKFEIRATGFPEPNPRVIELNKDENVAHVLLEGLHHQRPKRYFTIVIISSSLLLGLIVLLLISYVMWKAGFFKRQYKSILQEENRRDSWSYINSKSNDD

Structure (SMILES) | IC50 [1] [µM] | inhibition [2] [%] | IC50 [3] [µM]
CCCCCOc1ccc(C[C@H](NC(=O)c2cccnc2)C(=O)O)cc1 | 3.8 | 87 | 
CCCCCOc1ccc(C[C@H](NC(=O)/C(=N/OC)c2csc(N)n2)C(=O)O)cc1 | 0.06 |  | 
CCCCCCc1ccc(C[C@H](NC(=O)Cc2cccc(NC(=N)N)c2)C(=O)O)cc1 | 7 |  | 
COC(=O)CCCC#Cc1ccc(C[C@H](NC(=O)c2ccc(S(N)(=O)=O)cc2)C(=O)O)cc1 | 0.317 | 94 | 
CCCCCOc1ccc(C[C@H](NC(=O)C2CC(=O)N(C)C2c2cccnc2)C(=O)O)cc1 (stereo in doubt; 3) [listing 1 of 2 here] |  | 81 | 
CC(C)(C)OC(=O)N1CCC[C@H](CC(=O)N[C@@H](Cc2ccc(C#CCCCC(=O)O)cc2)C(=O)O)C1 | 0.64 |  | 
CCCCCOc1ccc(C[C@H](NC(=O)C2CC(=O)N(C)C2c2cccnc2)C(=O)O)cc1 (stereo in doubt; 22) [listing 1 of 2 here] | 0.87 |  | 
CCCCCOc1ccc(C[C@H](NC(=O)[C@@H]2CSCN2C(C)=O)C(=O)O)cc1 | 0.112 |  | 4.2
CCCCCOc1ccc(C[C@H](NC(=O)[C@@H]2CCC(=O)N2Cc2ccccc2)C(=O)O)cc1 | 0.046 | 97 | 
CCCCCOc1ccc(C[C@H](NC(=O)C2CC(=O)N(C)C2c2cccnc2)C(=O)O)cc1 (stereo in doubt; 3) [listing 2 of 2 here] | 1.7 |  | 
CCCCCOc1ccc(C[C@H](NC(=O)c2c(C)cc(C)cc2C)C(=O)O)cc1 | 0.245 |  | 
O=C(O)CCCC#Cc1ccc(C[C@H](NC(=O)[C@@H]2CCC(=O)N2Cc2ccccc2)C(=O)O)cc1 | 0.02 |  | 
CCCCCOc1ccc(C[C@H](NC(=O)C2CC(=O)N(C)C2c2cccnc2)C(=O)O)cc1 (stereo in doubt; 22) [listing 2 of 2 here] |  | 90 | 
CCCCCOc1ccc(C[C@H](NC(=O)C2(C)CC2(Cl)Cl)C(=O)O)cc1 (stereo not given in full) | 0.21 |  | 
CCCCCOc1ccc(C[C@H](NC(=O)c2c3ccccc3nc3ccccc23)C(=O)O)cc1 | 0.59 | 92 | 
CO/N=C(\C(=O)N[C@@H](Cc1ccc(C#CCCCC(=O)OC)cc1)C(=O)O)c1csc(N)n1 | 0.135 | 99 | 
CC1(C(=O)N[C@@H](Cc2ccc(C#CCCCC(=O)O)cc2)C(=O)O)CC1(Cl)Cl (stereo not given in full) | 0.187 | 80 | 
CCCCCOc1ccc(C[C@H](NC(=O)Cc2cccc(N)c2)C(=O)O)cc1 | 4.5 |  | 
